Results taken from patent US6576620B2, “Method of identifying partial adenosine A1 receptor agonists” (CV Therapeutics, Inc., priority 1999, dated 2003).
Values joined by “and” are separate entries in the source; they are usually repeats but may differ in a detail not shown here. Equal entries are not always repeated. Where two headings read alike, the source gives them in different places.

How the values were obtained:
[1] = test system: guinea pig isolated heart; experiment: A-V nodal conduction time / S-H interval, isolated perfused heart; conditions: for S-H interval Efficacy: Table 5, 2759 = CVT-2759; for EC50: Cavia porcellus
Protocol: This method evaluates the potencies of compounds to cause coronary vasodilation (A2A AdoR response) and to prolong A-V nodal conduction time (A1 AdoR response).
Rats and guinea pigs, of either sex weighing from 230 to 260 grams and 300 to 350 grams, respectively, were used in this study. Animals were anesthetized by peritoneal injection of a cocktail containing ketamine and xylazine (ketamine 100 mg, xylazine 20 mg/ml). The chest was opened and the heart quickly removed. The heart was briefly rinse in ice-cold Krebs-Henseleit solution (see below), and the aorta cannulated. The heart was then perfused at a flow rate of 10 ml/min with modified Krebs-Henseleit (K-H) solution containing NaCl 117.9, KCl 4.5, CaCl2 2.5, MgSO4 1.18, KH2PO4 1.18, pyruvate 2.0 mmol. The K-H solution (pH 7.4) was gassed continuously with 95% O2 and 5% CO2 and warmed to 35±0.50° C. The heart was electrically paced at a fixed cycle length of […] (250 beats/min) using a bipolar electrode place on the left atrium. The electrical stimuli were generated by a Grass stimulator (Model S48, W. Warwick, R.I.) and delivered through a Stimuli Isolation Unit (Model SIU5, Astro-Med, Inc., NY) as square-wave pulses of 3-msec in duration and amplitude of at least twice the threshold intensity.
A1 adenosine receptor-mediated depression of A-V nodal conduction time (negative dromotropic effect) was measured. Atrial and ventricular surface electrograms in rats and His bundle electrogram in guinea pigs, were recorded during constant atrial pacing.
The effects of compounds on coronary conductance (A2A effect) and atrioventricular conduction time or stimulus-to-His-bundle (S-H) interval (A1 effect) was then determined. Hearts were instrumented for continuous recording of coronary perfusion pressure (A2A response) and atrioventricular (A-V) conduction time or S-H interval (A1 response). In each experiment, concentration-response relationship of compounds to increase coronary conductance and to prolong A-V conduction time or S-H interval was determined. After control measurements of CPP and A-V conduction time or S-H interval were made, progressive higher concentrations of the compound studied was administered until maximal coronary vasodilation and A-V nodal conduction time or S-H interval prolongation were achieved.
Guinea pigs (Hartley) of either sex weighing 300-350 g were anaesthetized with methoxyflurane and killed by decapitation. The chest was cut open and the heart was removed quickly and rinsed in ice-cold modified Krebs-Henseleit (K-H) solution. The contents of the modified K-H solution were (in mM): NaCl 117.9, KCl 4.8, CaCl2 2.5, MgSO2 1.18, KH2PO4 1.2, Na2 EDTA 0.5, ascorbic acid 0.14, dextrose 5.5, pyruvic acid (sodium salt) 2.0, and NaHCO3 25. The K-H solution was continuously gassed with 95% oxygen and 5% CO2, and the pH was adjusted to a value of 7.4. To perfuse the heart by the Langendorff method, the transected aorta was slid onto a glass cannula and secured by a ligature. Retrograde perfusion of the aorta was initiated immediately at a constant flow of 10 ml min-′ with modified K-H solution warmed to 36.0±0.5° C. A side port in the cannula was used to connect the perfusion line to a Gould pressure transducer for measurement of coronary perfusion pressure. Coronary perfusion pressure was continuously recorded on a strip chart (Gould RS3400, Cleveland, Ohio) throughout each experiment. Coronary conductance (in ml min^−1 mmHg^−1) was calculated as the ratio of coronary flow (10 ml min^−1) to perfusion pressure (mm Hg). To facilitate the exit of fluid from the left ventricle, the leaflets of the mitral valve were trimmed with fine spring-handled scissors. When appropriate, hearts were paced at a constant rate using external electrodes. […]

Adenosine A1 receptor [2] = experiment: A1-agonist stimulated [35S]GTPγS binding to G proteins; format: biochemical; conditions: for GTPγS (% of CPA): Table 5; for GTPγS: Table 1, compounds of Example 2, normalized to the full agonist CPA
Protocol: At the end of the incubation, each suspension was filtered and the retained radioactivity determined as described above.

Adenosine A1 receptor [3] = target: T1, Adenosine A1 receptor (Cavia porcellus, UniProt P47745); experiment: Affinity binding (Ki) of Tables 4 and 5
T1 construct: from tissue; host or cells: guinea pig forebrain membranes
T1 sequence (P47745 1-326): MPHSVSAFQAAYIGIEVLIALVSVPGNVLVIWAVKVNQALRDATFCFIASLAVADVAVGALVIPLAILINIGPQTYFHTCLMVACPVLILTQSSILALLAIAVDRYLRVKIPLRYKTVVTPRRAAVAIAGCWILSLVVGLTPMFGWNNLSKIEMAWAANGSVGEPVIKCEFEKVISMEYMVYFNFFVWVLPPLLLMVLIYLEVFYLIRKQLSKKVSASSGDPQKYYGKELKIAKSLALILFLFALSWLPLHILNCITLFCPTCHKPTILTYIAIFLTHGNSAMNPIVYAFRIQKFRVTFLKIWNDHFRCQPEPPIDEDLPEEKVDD
Protocol: The binding affinity of a compound is evaluated in a competitive binding assay.

[4] = Table 4, A-V nodal conduction time, read-out: EC50 A-V NCT
[5] = Table 5, S-H interval, read-out: EC50

Compound | Ki (Adenosine A1 receptor [3]; Table 5, read-out: Ki) | GTPγS (Adenosine A1 receptor [2]) | further results
CCCn1c(=O)c2[nH]c(C3CCCC3)nc2n(CCC)c1=O [CPX, 8-cyclopentyl-1,3-dipropylxanthine, reference compound] | – | – | S-H interval ([1]; 50 nM CPX in continued presence of 10 μM Compound 6 of Example 2 (58±2 msec before CPX)): 50 ± 2 ms
O[C@@H]1[C@H](O)[C@@H](CSc2c(Cl)cccc2Cl)O[C@H]1n1cnc2c(N[C@@H]3CCOC3)ncnc21 [Compound 19 of Example 4, 2-{6-[((3R)oxolan-3-yl)amino]purin-9-yl}(4S,5S,2R,3R)-5-[(2,6-dichlorophenylthio)methyl]oxolane-3,4-diol] | 1.34 µM | – | GTPγS (% of CPA) (Adenosine A1 receptor [2]): 89 % of CPA; S-H interval Efficacy [1]: Full (>2759)
O[C@@H]1[C@H](O)[C@@H](CSc2cccc(F)c2)O[C@H]1n1cnc2c(N[C@@H]3CCOC3)ncnc21 [Compound 20 of Example 4, 2-{6-[((3R)oxolan-3-yl)amino]purin-9-yl}(4S,5S,2R,3R)-5-[(3-fluorophenylthio)methyl]oxolane-3,4-diol] | 1.56 µM | – | GTPγS (% of CPA) (Adenosine A1 receptor [2]): 84.2 % of CPA; S-H interval Efficacy [1]: Partial (= 2759)
O[C@@H]1[C@H](O)[C@@H](CSc2ccccc2F)O[C@H]1n1cnc2c(N[C@@H]3CCOC3)ncnc21 [Compound 21 of Example 4, 2-{6-[((3R)oxolan-3-yl)amino]purin-9-yl}(4S,5S,2R,3R)-5-[(2-fluorophenylthio)methyl]oxolane-3,4-diol] | 0.372 µM and 0.221 µM | – | GTPγS (% of CPA) (Adenosine A1 receptor [2]): 72 % of CPA; Ki (Adenosine A1 receptor [3]; Table 4, read-out: Ki low): 0.6 µM; EC50 [1, 4]: 1.2 µM; EC50 [1, 5]: 1.26 µM; S-H interval Efficacy [1]: Partial (>2759)
CNC(=S)OC[C@H]1O[C@@H](n2cnc3c(N[C@@H]4CCOC4)ncnc32)[C@H](O)[C@@H]1O [Compound 45 of Example 2, 2-{6-[((3R)oxolan-3-yl)amino]purin-9-yl}(4S,2R,3R,5R)-5-{[(methylamino)thioxomethoxy]methyl}oxolane-3,4-diol] | 0.346 µM | 77% | GTPγS (% of CPA) (Adenosine A1 receptor [2]): 77 % of CPA; Ki (Adenosine A1 receptor [3]; Table 4, read-out: Ki low): 0.4 µM; EC50 [1, 4]: 0.6 µM; EC50 [1, 5]: 0.57 µM; S-H interval Efficacy [1]: Partial
CCNC(=S)OC[C@H]1O[C@@H](n2cnc3c(N[C@@H]4CCOC4)ncnc32)[C@H](O)[C@@H]1O [Compound 46 of Example 2, 2-{6-[((3R)oxolan-3-yl)amino]purin-9-yl}(4S,2R,3R,5R)-5-{[(ethylamino)thioxomethoxy]methyl}oxolane-3,4-diol] | 1.11 µM | 77% | GTPγS (% of CPA) (Adenosine A1 receptor [2]): 77 % of CPA; S-H interval Efficacy [1]: Full (Weak)
CC(C)NC(=S)OC[C@H]1O[C@@H](n2cnc3c(N[C@@H]4CCOC4)ncnc32)[C@H](O)[C@@H]1O [Compound 47 of Example 2, 2-{6-[((3R)oxolan-3-yl)amino]purin-9-yl}(4S,2R,3R,5R)-5-({[(methylethyl)amino]thioxomethoxy}methyl)oxolane-3,4-diol] | 1.37 µM | – | –
O[C@@H]1[C@H](O)[C@@H](COC(=S)N[C@H]2CCC[C@@H]2O)O[C@H]1n1cnc2c(N[C@@H]3CCOC3)ncnc21 [Compound 64 of Example 2, 2-{6-[((3R)oxolan-3-yl)amino]purin-9-yl}(4S,2R,3R,5R)-5-({[((1S,2S)-2-hydroxycyclopentyl)amino]thioxomethoxy}methyl)oxolane-3,4-diol] | – | 99% | –
O=C(NC1CCCC1C(=O)O)OC[C@H]1O[C@@H](n2cnc3c(N[C@@H]4CCOC4)ncnc32)[C@H](O)[C@@H]1O (stereo partly shown) [Compound 65 of Example 2] | – | 81% | –
O=C(O)CCNC(=O)OC[C@H]1O[C@@H](n2cnc3c(N[C@@H]4CCOC4)ncnc32)[C@H](O)[C@@H]1O [Compound 67 of Example 2, 3-{[(5-{6-[((3R)oxolan-3-yl)amino]purin-9-yl}(3S,2R,4R,5R)-3,4 dihydroxyoxolan-2-yl)methoxy]carbonylamino}propanoic acid] | – | 59% | –
O=C(O)CNC(=O)OC[C@H]1O[C@@H](n2cnc3c(N[C@@H]4CCOC4)ncnc32)[C@H](O)[C@@H]1O [Compound 68 of Example 2, 2-{[(5-{6-[((3R)oxolan-3-yl)amino]purin-9-yl}(3S,2R,4R,5R)-3,4 dihydroxyoxolan-2-yl)methoxy]carbonylamino}acetic acid] | – | 76% | –
COC(=S)NC[C@H]1O[C@@H](n2cnc3c(N[C@@H]4CCOC4)ncnc32)[C@H](O)[C@@H]1O [Compound 71 of Example 2] | – | 98% | –
O=C(NC1CCCC1)SC[C@H]1O[C@@H](n2cnc3c(N[C@@H]4CCOC4)ncnc32)[C@H](O)[C@@H]1O [Compound 73 of Example 2, [(5-{6-[((3R)oxolan-3-yl)amino]purin-9-yl}(2S,3S,4R,5R)-3,4-dihydroxyoxolan-2-yl)methythio]-N-cyclopentylcarboxamide] | – | 109% | –
CNC(=S)SC[C@H]1O[C@@H](n2cnc3c(N[C@@H]4CCOC4)ncnc32)[C@H](O)[C@@H]1O [Compound 74 of Example 2, 2-{6-[((3R)oxolan-3-yl)amino]purin-9-yl}(4S,5S,2R,3R)-5-{[(methylamino)thioxomethylthio]methyl}oxolane-3,4-diol] | – | 95% | –
O[C@@H]1[C@H](O)[C@@H](CSC(=S)NC2CCCC2)O[C@H]1n1cnc2c(N[C@@H]3CCOC3)ncnc21 [Compound 75 of Example 2] | – | 91% | –
CNC(=S)NC[C@H]1O[C@@H](n2cnc3c(N[C@@H]4CCOC4)ncnc32)[C@H](O)[C@@H]1O [Compound 77 of Example 2, 2-{6-[((3R)oxolan-3-yl)amino]purin-9-yl}(4S,2R,3R,5R)-5-({[(methylamino)thioxomethyl]amino}methyl)oxolane-3,4-diol] | – | 101% | –
O[C@@H]1[C@H](O)[C@@H](CNC(=S)NC2CCCC2)O[C@H]1n1cnc2c(N[C@@H]3CCOC3)ncnc21 [Compound 78 of Example 2, 2-{6-[((3R)oxolan-3-yl)amino]purin-9-yl}(4S,2R,3R,5R)-5-({[(cyclopentylamino)thioxomethyl]amino}methyl)oxolane-3,4-diol] | – | 95% | –
O=c1occn1C[C@H]1OC(n2cnc3c(N[C@@H]4CCOC4)ncnc32)[C@H](O)[C@@H]1O (stereo partly drawn) [Compound 80 of Example 2, 3-[(5-{6-[((3R)oxolan-3-yl)amino]purin-9-yl}(3S,2R,4R)-3,4-dihydroxyoxolan-2-yl)methyl]-1,3-oxazolin-2-one] | – | 80% | –
CNC(=O)OC[C@H]1O[C@@H](n2cnc3c(N[C@@H]4CCOC4)ncnc32)[C@H](O)[C@@H]1O [compound 6] | – | – | Ki (Adenosine A1 receptor [3]; Table 4, read-out: Ki low): 2.6 µM; EC50 [1, 4]: 3.1 µM
CCCCNC(=O)OCC1OC(n2cnc3c(N[C@@H]4CCOC4)ncnc32)C(O)C1O (stereo partly shown) [compound 27] | 9.63 µM | – | –
N-[(5-{6-[((3R)oxolan-3-yl)amino]purin-9-yl}(3S,2R,4R,5R)-3,4-dihydroxyoxolan-2-yl)methy]cyclopentyloxycarboxamide [Compound 70 of Example 2] | – | 76% | –
